In patent US11197918B2, “Pharmaceutical composition for preventing or treating neovascular disease, containing collagen type i and pigment epithelium derived factor peptide as active ingredients” (NexThera Co., Ltd., priority 2017, dated 2021):

What was measured:
[1] = test system: choroidal neovascularization (CNV); test: Laser-induced choroidal neovascularization model, intravitreal injection immediately after laser irradiation; assay type: in vivo, C57BL/6 mice; settings: intraocular injection for 5 days, day 14 after laser (FIG. 2A, 2B)
Experimental: 5-8 week old C57BL/6 mice were purchased from Orient and used.
The pupils of each mouse were dilated using 5 mg/mL Tropicamide (santen pharmaceutical co. ltd, Kita-ku, Osaka, Japan) eye drops and 100 mg/kg ketamine (Huons, SEONGNAM-SI, GYEONGGI-DO, Korea) and 10 mg/kg xylazine (BAYER, Leverkusen, Germany) were anesthetized by intraperitoneal injection.
After anesthesia, the mice were fixed to the mouse holder, and a laser beam of 150 to 210 mW intensity was irradiated for 0.1 second using a slit lamp microscope laser system to prepare four lesions of 50-100 μm size in the retinas of mice at 3, 6, 9 and 12 o'clock. At this time, droplets should be formed by the laser beam, which are important for breaking Bruch's membranes to form neovascularization (CNV). […]
The stained eyeball was separated and placed in 10% formalin to fix for 30 minutes, and then muscles, corneas, irises, lenses and vitreous bodies around the eyeball were carefully removed not to hurt the eye's retina fixed on the microscope and four sections were cut at 3, 6, 9, and 12 o'clock, covered with coverslip, the lesion was photographed using a fluorescence microscope, and the size was measured to compare with the control group.

HUVECs tube formation = test: Stability confirmation by tube formation assay after storage; assay type: physicochemical, human; settings: stored for 6 weeks at 4° C. and room temperature (FIG. 11)
Experimental: In order to confirm the stability of the mixture of PEDF 34-mer peptide and collagen, the mixture of PEDF 34-mer peptide and collagen and the PEDF 34-mer peptide were stored for 6 weeks at 4° C. and room temperature (RT), and stability of PEDF 34-mer peptide and PEDF 34-mer peptide and collagen mixture, which were prepared immediately before the experiment, were compared.
Tube formation assay for each mixture was performed to confirm angiogenesis inhibitory ability.

[2] = test system: choroidal neovascularization (CNV); test: Choroidal neovascularization model with complete neovascularization, treatment on day 7 after laser irradiation; assay type: in vivo, C57BL/6 mice; settings: 0.1% collagen type I, 25 pmol peptide or their mixture, administered once on day 7 after laser irradiation (FIG. 7B, 7C)
HUVECs cells = test: Tube formation assay in VEGF-165-induced HUVECs; assay type: cell-based, human
Experimental: 48-well plates were coated with 200 μl Matrigel and maintained at 37° C. for 1 hour, and HUVECs cells were stained with Calcein-AM for 15 minutes at 37° C.
The stained HUVECs cells were dispensed into 2×10^4 cells in each well of a Matrigel-coated plate and treated with recombinant human VEGF-165 into each well to induce the tube formation of the cells.
Thereafter, collagen type I (collagen type I alpha 1, partial [Sus scrofa] GenBank: AAR03833.1) and 34-mer pigment epithelium derived factor peptide (DPFFKVPVNKLAAAVSNFGYDLYRVRSSTSPTTN: SEQ ID NO: 1) were treated separately, respectively, or mixed together and treated and incubated for 4 hours at 37° C., and the degree of tube formation of each group was confirmed.
The degree of tube formation was confirmed by taking pictures with a Micromanipulator (Olympus) and compared by measuring the length of the tube.

Substance: DPFFKVPVNKLAAAVSNFGYDLYRVRSSTSPTTN (DPFFKVPVNKLAAAVSNFGYDLYRVRSSTSPTTN; pigemented epithelium derived factor peptide)
- size of neovascularization (CNV) ([1]; peptide 10 pmol): increase neovascularization (CNV) again
- size of neovascularization (CNV) ([1]; peptide 0.01, 0.5 and 0.1 pmol): significantly reduced
- stability: tube formation inhibition after storage compared with preparation made immediately before the experiment (HUVECs tube formation): did not inhibit the tube formation
- angiogenesis inhibitory effect [2]: almost no angiogenesis inhibitory effect
- inhibitory effect on tube formation (HUVECs cells; carrier comparison: 0.1% collagen type I, hyaluronic acid or gelatin, alone or with peptide 0.02-500 pmol/ml (FIG. 4)): same as that of the 34-mer pigment epithelium derived factor peptide and collagen type I mixture administration group
- inhibitory effect on tube formation (HUVECs cells; peptide alone 0.2 pg/ml, VEGF-165-induced HUVECs, 4 hours (FIG. 1A, 1B)): greatest inhibitory effect on tube formation
- tube formation (HUVECs cells; peptide alone at higher concentrations (up to 5 pmol/ml), 4 hours (FIG. 1A, 1B)): the tube formation increased again
- tube formation (HUVECs cells; peptide at high concentration, alone or mixed with 0.05 or 0.1% collagen type I (FIG. 3)): the tube formation increased rapidly
